Experiments:
[1] = biological target: T1, PDE4B (human recombinant) (Homo sapiens, UniProt Q07343); test: Inhibition of PDE4B activity: radioactive Scintillation Proximity Assay (SPA); assay type: biochemical; settings: SPA assay (Examples 1 to 6); read-out: PDE4B mean pIC50 (converted)
T1 construct: made in house
Excerpt: Human recombinant PDE4B, in particular the 2B splice variant thereof (HSPDE4B2B), is disclosed in WO 94/20079 and also in M. M. McLaughlin et al., “A low Km, rolipram-sensitive, cAMP-specific phosphodiesterase from human brain: cloning and expression of cDNA, biochemical characterization of recombinant protein, and tissue distribution of mRNA”, J. Biol. Chem., 1993, 268, 6470-6476. For example, in Example 1 of WO 94/20079, human recombinant PDE4B is described as being expressed in the PDE-deficient yeast Saccharomyces cerevisiae strain GL62, e.g. after induction by addition of 150 uM CuSO4, and 100,000×g supernatant fractions of yeast cell lysates are described for use in the harvesting of PDE4B enzyme.
(§1) Inhibition of PDE3, PDE4B, PDE4D, PDE5 or PDE6 Activity: Radioactive Scintillation Proximity Assay (SPA)
(§2) The ability of compounds to inhibit catalytic activity at PDE4B or 4D (human recombinant), PDE3 (from bovine aorta) PDE5 (human recombinant) or PDE 6 (from bovine retina) was may be determined by Scintillation Proximity Assay (SPA) in 96-well format. Test compounds (preferably as a solution in DMSO, e.g. 2 microlitre (μl) volume) were preincubated at ambient temperature in Wallac Isoplates (code 1450-514) with PDE enzyme in 50 mM Tris-HCl buffer pH 7.5, 8.3 mM MgCl2, 1.7 mM EGTA, 0.05% (w/v) bovine serum albumin for 10-30 minutes. The enzyme concentration was adjusted so that control rates are linear over the assay incubation period. For the PDE3, PDE4B and PDE4D assays […] 3′,5′-cyclic phosphate (Amersham Pharmacia Biotech, code TRK.559 or Amersham Biosciences UK Ltd, Pollards Wood, Chalfont St Giles, Buckinghamshire HP8 4SP, UK) was added to give 0.05 μCi per well and ˜10 nM final concentration. For the PDE5 and PDE6 assays [8-^3H]guanosine 3′,5′-cyclic phosphate (Amersham Pharmacia Biotech , code TRK.392) was added to give 0.05 μCi per well and ˜36 nM final concentration. Plates e.g. containing approx. 100 μl volume of assay mixture were mixed on an orbital shaker for 5 minutes and incubated at ambient temperature for 1 hour. Phosphodiesterase SPA beads (Amersham Pharmacia Biotech, code RPNQ 0150) were added (˜1 mg per well) to terminate the assay. Plates were sealed and shaken and allowed to stand at ambient temperature for 35 minutes to 1 hour to allow the beads to settle. Bound radioactive product was measured using a WALLAC TRILUX 1450 MicroBeta scintillation counter. […] Curves were analyzed using ActivityBase and XLfit (ID Business Solutions Limited, 2 Ocean Court, Surrey Research Park, Guildford, Surrey GU2 7QB, United Kindgom). Results were expressed as pIC50 values.

PDE5 (human recombinant) = PDE5 (human recombinant) (Homo sapiens, UniProt O76074); test: Inhibition of PDE5 activity: radioactive Scintillation Proximity Assay (SPA); assay type: biochemical; settings: SPA assay (all Examples); read-out: PDE5 mean pIC50 (converted)
Excerpt: Human recombinant PDE5 is disclosed in K. Loughney et al., “Isolation and characterization of cDNAs encoding PDE5A, a human cGMP-binding, cGMP-specific 3′,5′-cyclic nucleotide phosphodiesterase”, Gene, 1998, 216, 139-147.
as §1, §2

T1 sequence (Q07343 1-564 isoform Q07343-2): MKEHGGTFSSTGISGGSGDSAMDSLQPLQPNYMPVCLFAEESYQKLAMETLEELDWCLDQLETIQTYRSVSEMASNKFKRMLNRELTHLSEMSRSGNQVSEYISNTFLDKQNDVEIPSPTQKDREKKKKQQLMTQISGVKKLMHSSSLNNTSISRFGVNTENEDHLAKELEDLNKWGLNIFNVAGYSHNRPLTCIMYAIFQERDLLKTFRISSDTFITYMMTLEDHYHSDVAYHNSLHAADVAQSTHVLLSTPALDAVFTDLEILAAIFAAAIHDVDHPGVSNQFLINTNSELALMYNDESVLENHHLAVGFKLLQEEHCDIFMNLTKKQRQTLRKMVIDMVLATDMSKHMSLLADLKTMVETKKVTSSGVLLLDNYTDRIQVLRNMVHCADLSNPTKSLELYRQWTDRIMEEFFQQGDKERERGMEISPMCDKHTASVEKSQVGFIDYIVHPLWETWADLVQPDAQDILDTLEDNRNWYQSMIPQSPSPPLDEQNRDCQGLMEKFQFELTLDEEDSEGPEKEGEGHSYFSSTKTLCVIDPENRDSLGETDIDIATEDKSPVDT

SMILES	IC50 [1] [nM]	IC50 (PDE5 (human recombinant)) [nM]
COc1cccc(Nc2c(C(N)=O)cnc3ccc(C(=O)N4CCOCC4)cc23)c1 [Example 1, 4-{[3-(Methyloxy)phenyl]amino}-6-(4-morpholinylcarbonyl)-3-quinolinecarboxamide]	10	> 31600
COc1cccc(Nc2c(C(N)=O)cnc3ccc(C(=O)Nc4ccccc4)cc23)c1 [Example 2, 4-{[3-(methyloxy)phenyl]amino}-N^6-phenyl-3,6-quinolinedicarboxamide]	25.1	> 31600
COc1cccc(Nc2c(C(N)=O)cnc3ccc(C(=O)NC(C)(C)C)cc23)c1 [Example 3]	39.8	> 31600
CNC(=O)c1ccc2ncc(C(N)=O)c(Nc3cccc(OC)c3)c2c1 [Example 6]	501	> 31600
